In article PMC5823473, “Host-parasite co-metabolic activation of antitrypanosomal aminomethyl-benzoxaboroles” (PLoS Pathogens, 2018):

Columns and labels:
TbALDH3 = molecular target: T1, TbALDH3 (Trypanosoma brucei, UniProt Q583M9); experiment: HPLC-MS of metabolites, coupled with MAOa or FBS; type: biochemical; conditions: aldehyde made in situ from AN3057; oxidised to the carboxylate (AN2861)
T1 construct: gene Tb06.5F5.780; A6-K490 seen in crystal
T1 sequence (Q583M9 1-543): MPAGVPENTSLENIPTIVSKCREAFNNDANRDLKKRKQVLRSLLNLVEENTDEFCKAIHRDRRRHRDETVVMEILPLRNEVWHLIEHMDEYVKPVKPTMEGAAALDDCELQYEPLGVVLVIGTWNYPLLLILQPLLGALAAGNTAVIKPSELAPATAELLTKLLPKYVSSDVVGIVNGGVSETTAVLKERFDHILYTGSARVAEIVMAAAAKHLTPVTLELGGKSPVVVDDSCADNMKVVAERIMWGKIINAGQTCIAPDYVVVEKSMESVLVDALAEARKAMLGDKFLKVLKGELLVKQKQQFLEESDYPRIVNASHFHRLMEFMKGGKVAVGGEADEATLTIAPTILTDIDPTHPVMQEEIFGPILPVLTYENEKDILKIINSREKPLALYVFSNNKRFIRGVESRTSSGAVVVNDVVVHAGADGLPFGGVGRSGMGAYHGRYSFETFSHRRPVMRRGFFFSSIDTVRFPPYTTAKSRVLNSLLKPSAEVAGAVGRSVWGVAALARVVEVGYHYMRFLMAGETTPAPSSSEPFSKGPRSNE

MAOa = molecular target: T2, MAOa (Homo sapiens, UniProt P21397); experiment: HPLC-MS of metabolites; type: biochemical; conditions: oxidised to the aldehyde
T2 construct: commercial recombinant enzyme (Sigma)
T2 sequence (P21397 1-527): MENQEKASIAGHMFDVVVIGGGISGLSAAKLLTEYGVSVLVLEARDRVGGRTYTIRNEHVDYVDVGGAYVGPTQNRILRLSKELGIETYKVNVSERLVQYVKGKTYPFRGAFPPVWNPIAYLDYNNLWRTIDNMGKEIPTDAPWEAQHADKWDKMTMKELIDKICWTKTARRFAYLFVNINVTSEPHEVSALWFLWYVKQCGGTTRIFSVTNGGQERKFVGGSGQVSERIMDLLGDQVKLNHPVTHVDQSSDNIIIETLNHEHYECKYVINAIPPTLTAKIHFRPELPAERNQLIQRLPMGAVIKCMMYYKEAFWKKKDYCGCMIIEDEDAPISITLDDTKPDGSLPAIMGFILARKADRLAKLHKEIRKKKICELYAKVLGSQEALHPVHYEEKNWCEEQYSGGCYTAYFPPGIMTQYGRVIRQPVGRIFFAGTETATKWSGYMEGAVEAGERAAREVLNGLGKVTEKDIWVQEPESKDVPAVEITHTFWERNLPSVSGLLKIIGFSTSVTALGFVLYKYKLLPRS

Q: How did the “HPLC-MS of metabolites, coupled with MAOa or FBS” value (TbALDH3) turn out when O=Cc1ccc(Oc2ccc3c(c2)COB3O)cc1 [AN3057-aldehyde] was run?
A: converted by MAOa into an aldehyde, and then is further metabolized into a carboxylic acid

Q: With NCc1ccc(Oc2ccc3c(c2)COB3O)cc1 [AN3057, (4-(1-hydroxy-1,3-dihydrobenzo[c][1,2]oxaborol-5-yloxy)phenyl)methanaminium chloride] as the compound, how does the HPLC-MS of metabolites (MAOa) read?
A: the methylamine group in the structure is first converted by MAOa into an aldehyde
